Laboratory results as given in article PMC5750217 (Nature Communications, 2018).

Experiments:
ASCT1 = molecular target: T1, ASCT1 (Homo sapiens, UniProt P43007); experiment: Two electrode voltage clamp, substrate-activated anion current in oocytes expressing ASCT1; assay type: cell-based
T1 construct: expressed in transfected cells; host or cells: Xenopus laevis oocytes (cRNA injection)
T1 sequence (P43007 1-532): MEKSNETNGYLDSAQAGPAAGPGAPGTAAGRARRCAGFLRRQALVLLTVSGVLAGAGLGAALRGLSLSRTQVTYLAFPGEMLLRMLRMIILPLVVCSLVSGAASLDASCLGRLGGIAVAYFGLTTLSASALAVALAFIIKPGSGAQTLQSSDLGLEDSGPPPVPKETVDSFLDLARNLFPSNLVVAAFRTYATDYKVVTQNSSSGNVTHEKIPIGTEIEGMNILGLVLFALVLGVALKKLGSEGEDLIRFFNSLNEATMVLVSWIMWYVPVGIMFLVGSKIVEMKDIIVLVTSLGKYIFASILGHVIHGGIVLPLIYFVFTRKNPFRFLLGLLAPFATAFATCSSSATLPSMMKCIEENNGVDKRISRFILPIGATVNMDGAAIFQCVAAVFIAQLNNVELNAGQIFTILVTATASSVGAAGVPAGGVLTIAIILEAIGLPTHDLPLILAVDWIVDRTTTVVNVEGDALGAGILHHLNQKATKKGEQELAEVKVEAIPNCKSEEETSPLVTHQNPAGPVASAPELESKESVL
Experimental: (§1) All chemicals were obtained from Sigma unless otherwise stated. Stage V oocytes were harvested from female Xenopus laevis (frogs) which were obtained from Nasco (Fort Alkinson, USA). Frogs were anaesthetised with 6.5 mM tricaine neutralised with 7.14 mM sodium bicarbonate. After making an incision in the abdomen of the frog, ovarian sacs were removed and stored in OR-2 buffer (82.5 mM NaCl, 2 mM KCl, 1 mM MgCl2, 5 mM hemisodium HEPES, pH 7.5). This surgical procedure follows a protocol (#2016/970) approved by the University of Sydney Animal Ethics Committee under the Australian Code of Practice for the Care and Use of Animals for Scientific Purposes. […]
(§2) After 2–4 days of microinjection, current recordings were made using the two electrode voltage clamp technique with a Geneclamp 500 amplifier (Axon Instruments, Foster City, CA) interfaced with a MacLab 2e chart recorder (ADI Instruments, Sydney, Australia) using the chart software, and a Digidata 1322A (Axon Instruments) controlled by an IBM-compatible computer using the pClamp software (version 10, Molecular Devices, Union City, CA). […] Current–voltage relationships were calculated by subtracting steady state current measurements in the absence of substrate from corresponding current measurements in the presence of substrate. […]

ASCT2 = molecular target: T2, ASCT2 (Homo sapiens, UniProt Q15758); experiment: Two electrode voltage clamp, substrate-activated anion current in oocytes expressing ASCT2; assay type: cell-based
T2 sequence (Q15758 1-541): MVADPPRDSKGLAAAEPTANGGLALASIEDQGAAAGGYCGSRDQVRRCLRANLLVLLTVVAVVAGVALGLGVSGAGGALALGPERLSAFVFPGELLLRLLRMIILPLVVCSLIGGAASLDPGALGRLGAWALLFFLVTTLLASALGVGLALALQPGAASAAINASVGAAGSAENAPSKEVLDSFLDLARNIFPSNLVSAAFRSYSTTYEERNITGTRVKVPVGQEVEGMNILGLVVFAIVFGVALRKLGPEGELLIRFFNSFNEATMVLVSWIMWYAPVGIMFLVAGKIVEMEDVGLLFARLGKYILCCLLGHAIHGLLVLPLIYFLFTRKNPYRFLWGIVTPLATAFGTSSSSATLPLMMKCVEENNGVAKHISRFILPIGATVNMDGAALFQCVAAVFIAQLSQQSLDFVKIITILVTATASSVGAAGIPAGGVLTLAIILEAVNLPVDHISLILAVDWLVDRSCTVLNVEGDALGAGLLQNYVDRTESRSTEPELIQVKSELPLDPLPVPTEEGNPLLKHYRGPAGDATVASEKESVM
Experimental: as §1, §2

Row | SMILES | GPNA % inhibition of L-serine activated current (ASCT1; ASCT1, GPNA co-applied with EC50 of L-serine, 300 µM GPNA / 1 mM GPNA (Table 1 footnote)) | GPNA % inhibition of L-serine activated current (ASCT2; GPNA co-applied with EC50 of L-serine, 300 µM GPNA / 1 mM GPNA (Table 1 footnote)) | IC50 (ASCT2; co-applied with EC50 of L-serine, read-out: IC50 for inhibition of L-serine activated current) | EC50 (ASCT1; ASCT1 in oocytes, NO3−-containing buffer, current at +60 mV, dash = substrate did not generate currents)
1 | N[C@@H](CCC(=O)Nc1ccc([N+](=O)[O-])cc1)C(=O)O [GPNA, glutamyl-p-nitroanilide] | 26 ± 3% | 90 ± 5% | 90 ± 20 µM | 
2 | N[C@@H](CO)C(=O)O [L-serine] |  |  |  | 100 ± 20 µM
